Results on 1 compound are retold here after patent US9839632B2, “Methods and compositions using 4-amino-2-(2,6-dioxo-piperidine-3-yl)-isoindoline-1,3-dione for treatment and management of central nervous system cancers” (CELGENE CORPORATION, priority 2013, dated 2017).

The test system of experiment [1] is primary murine microglia cells cocultured with Raji lymphoma cells. As to the kind of experiment: Polarization of primary murine microglia cocultured with Raji lymphoma cells with or without primary murine NK cells. The class given is cell-based. The following applies: for M2 polarization of microglia cells (FXIIIA, pSTAT6): coculture with Raji lymphoma cells, without NK cells; for polarization status of microglia cells (iNOS, pSTAT1): triple culture with Raji lymphoma cells and primary murine NK cells, 10 ug/ml 48 hours. On the procedure:
(§1) Treatments: In experiments in which IL-4 was used to induce M2 polarization of macrophages, cells were treated with IL-4 (20 ng/ml) for 48 hours followed by treatment with 4-amino-2-(2,6-dioxo-piperidine-3-yl)-isoindoline-1,3-dione (10 ug/ml) or DMSO control for 48 hours. In triple cell culture experiments with lymphoma cells, macrophages, and NK cells, the treatment was with either DMSO or 4-amino-2-(2,6-dioxo-piperidine-3-yl)-isoindoline-1,3-dione (10 ug/ml) for 48 hours.
(§2) Immunofluorescence for analysis of macrophage polarization in cell culture experiments: Live cells were fixed in 10% formalin for 30 minutes at room temperature followed by permeabilization with PBS-0.2% Triton X-100 for 2 min. After blocking with PBS-5% goat serum-0.02% Triton X-100 for 30 minutes at 37° C., the cells were incubated overnight at 4° C. with rat monoclonal F4/80 antibody (for primary microglia cells, 1:200 Abcam), rat monoclonal CD11b (for U937, 1:200 Biolegend), rabbit polyclonal Ym1 antibody (for primary microglia cells and primary peritoneal macrophages, 1:200, Stemcell Technologies, Vancouver, Canada), rabbit polyclonal FXIII A antibody (for U937, 1:200, Abcam), mouse monoclonal p-STAT1 antibody (1:200, Abcam), rabbit polyclonal p-STAT6 antibody (1:200, Abcam) or rabbit iNOS antibody (1:200, Calbiochem). After washing, cells were incubated with the Alexa Fluor 594 Goat anti-Rat IgG secondary antibody (1:1000, Life Technologies) and FITC Donkey anti-rabbit IgG secondary antibody (1:1000, Life technology) or FITC Goat anti-mouse IgG secondary antibody (1:1000, Sigma) at 37° C. for 45 minutes. Finally, Vectashield H-1200 mounting medium with DAPI (Vector Laboratories) was used to stain the nuclei. Images were obtained on a Zeiss LSM 510 META confocal microscope.

In experiment [2] the test system is macrophages and NK cells in the CNS lymphoma microenvironment. As to the kind of experiment: Immunohistochemistry/immunofluorescence of CNS lymphoma microenvironment, OCI-LY10 model. Type of experiment: in vivo, athymic mice. The following applies: P<0.05 vs control. An excerpt:
Immunohistochemistry (“IHC”) assessment for macrophages: Paraffin sections (10 μm thick) were fixed, blocked, and immunostained with the appropriate antibody: Iba-1 (BD Biosciences) for macrophages, Ym1 (Stemcell Technologies) as a marker for M2 polarization, iNOS (Calbiochem) as a marker for M1 polarization. Aperio ScanScope XT slide scanner and image analysis system (Aperio Spectrum, Vista, Calif.) were used for quantitative assessment of macrophages. Three equal-size (0.4 mM2) fields in macrophage-dense areas were selected in the contralateral brain and the tumor for counting. Data were shown as an average of the three fields.
Immunofluorescence for natural killer cells: Frozen sections (10 μm thick) were permeabilized with PBS-0.2% Triton X-100 for 5 min. After blocking with PBS-5% goat serum-0.02% Triton X-100 for 45 mins at 37° C., the sections were incubated overnight at 4° C. with Rat monoclonal CD335 antibody (a marker for NK cells, 1:200, Biolegend). After washing, sections were incubated with the Alexa Fluor 594 Goat anti-Rat IgG secondary antibody (1:1000, Life Technologies) at 37° C. for 1.5 h. Finally, Vectashield H-1200 mounting medium with DAPI (Vector Laboratories) was used to stain the nuclei. Images were obtained on a Zeiss LSM 510 META confocal microscope. Six equal-size (0.2 mM^2) fields in NK-dense areas were selected in the tumor for taking pictures. Fluorescence intensity data were generated by Zeiss LSM 510 and shown as an average of six fields.
Statistical analysis: One-way ANOVA was used to compare the difference between the groups at each time point. Two-way repeated measures ANOVA was used to analyze the interaction between the time and treatment. Survival analysis was performed by Kaplan Meier method. Kaplan Meier survival curves were generated using Prism4 software and the statistical difference between curves was derived with a log-rank test. P<0.05 was considered significant.

The subject of experiment [3] is U937 cells cocultured with OCI-LY10 lymphoma cells. Briefly: Polarization of U937 cocultured with OCI-LY10 lymphoma cells with or without YTS NK cells. Type of experiment: cell-based, human. The following applies: for M2 polarization of U937 cells (FXIIIA, pSTAT6): coculture with OCI-LY10 lymphoma cells, without NK cells; for polarization status of U937 cells (iNOS, pSTAT1): triple culture with OCI-LY10 lymphoma cells and YTS NK cells, 10 ug/ml 48 hours. On the procedure: Raji lymphoma cells (ATCC), U937 human monocyte cells (ATCC) and YTS NK cells (a gift from Dr. Pamela A. Becker) were cultured at 37° C. in a humidified incubator under 5% CO2 and 95% air in RPMI-1640 supplemented with 20% FCS and 1% penicillin-streptomycin, and 1% nonessential amino acids.
OCI-LY10 lymphoma cells (a gift from Arthur L. Shaffer III) were cultured at 37° C. in a humidified incubator under 5% CO2 and 95% air in IMDM supplemented with 20% FCS and 1% penicillin-streptomycin. Co-culture of lymphoma cells and U937 monocytes: Raji and U937 monocytes were cultured at 37° C. in a humidified incubator under 5% CO2 and 95% air in RPMI-1640 supplemented with 20% FCS and 1% penicillin-streptomycin, and 1% nonessential amino acids. OCI-LY10 and U937 monocytes were cultured at 37° C. in a humidified incubator under 5% CO2 and 95% air in IMDM supplemented with 20% FCS and 1% penicillin-streptomycin. Triple culture of lymphoma cells, U937 monocytes and YTS cells: Raji, U937 and YTS cells were cultured at 37° C. in a humidified incubator under 5% CO2 and 95% air in RPMI-1640 supplemented with 20% FCS and 1% penicillin-streptomycin, and 1% nonessential amino acids. OCI-LY10, U937 and YTS were cultured at 37° C. in a humidified incubator under 5% CO2 and 95% air in IMDM supplemented with 20% FCS and 1% penicillin-streptomycin.
as §1
as §2, with “After washing, cells were incubated with the Alexa Fluor 594 Goat anti-Rat IgG secondary antibody (1:1000, Life Technologies) and FITC Donkey anti-rabbit IgG secondary antibody (1:1000, Life technology) or FITC Goat anti-mouse IgG secondary antibody (1:1000, Sigma) at 37° C. for 45 minutes. Finally, Vectashield H-1200 mounting medium with DAPI (Vector Laboratories) was used to stain the nuclei. Images were obtained on a Zeiss LSM 510 META confocal microscope.” left out

[4] abbreviates: listed as 4-amino-2-(2,6-dioxo-piperidine-3-yl)-isoindoline-1,3-dione.

`Nc1cccc2c1C(=O)N(C1CCC(=O)NC1=O)C2=O` (stereo not drawn) [Pomalidomide, 4-amino-2-(2,6-dioxo-piperidine-3-yl)-isoindoline-1,3-dione]: in experiment [1], the “M2 polarization of microglia cells (FXIIIA, pSTAT6)” value is “reversed” and the “polarization status of microglia cells (iNOS, pSTAT1)” value is “from M2 to M1”. Also, in experiment [1] (setting [4]), the “M2 polarization of microglia cells (FXIIIA, pSTAT6)” value is reported as “M2 polarization was not seen” and the “polarization status of microglia cells (iNOS, pSTAT1)” value is “became M1-polarized”. Also, in experiment [2], the “CD335 positive NK cells in CNS tumors” value is given as “significantly increased”, the “Ym1 expression (M2-polarized macrophages) in tumor” value was “significantly decreased” and the “iNOS activity (M1-polarized macrophages) in tumor” value is “increased”. For the same compound, in experiment [2] (setting [4]), the “CD335 positive NK cells in CNS tumors” value is reported as “significant increase”, the “Ym1 expression (M2-polarized macrophages) in tumor” value is given as “significant decrease” and the “iNOS activity (M1-polarized macrophages) in tumor” value was “significant increase”. Moreover, in experiment [2] (contralateral brain and tumor), the “brain macrophages (Iba-1 positive cells)” value was “significantly increased”. In experiment [3], the “M2 polarization of U937 cells (FXIIIA, pSTAT6)” value is reported as “reversed” and the “polarization status of U937 cells (iNOS, pSTAT1)” value was “from M2 to M1”. Also, in experiment [3] (setting [4]), the “M2 polarization of U937 cells (FXIIIA, pSTAT6)” value is reported as “prevented the M2 polarization of macrophages but did not induce them into M1 polarization” and the “polarization status of U937 cells (iNOS, pSTAT1)” value is on record as “became M1-polarized”.
